Assay results from patent US20250082611A1, “DOSING REGIMEN FOR AN NLRP3 INHIBITOR IN THE TREATMENT OF OSTEOARTHRITIS” (Novartis AG, priority 2021, published 2025).

Test system: IL-1β production in PMA-differentiated THP-1 cells
Test: IL-1β production in PMA-differentiated THP-1 cells stimulated with gramicidin (hTHP-1 assay, 2% fetal bovine serum)
Format: cell-based
Conditions: Homo sapiens, hTHP-1 assay containing 2% fetal bovine serum
Protocol: THP-1 cells were purchased from the American Type Culture Collection and sub-cultured according to instructions from the supplier. Cells were cultured in complete RPMI 1640 (containing 10% heat inactivated FBS, penicillin (100 units/ml) and streptomycin (100 μg/ml)), and maintained in log phase prior to experimental setup. Prior to the experiment, compounds were dissolved in dimethyl sulfoxide (DMSO) to generate a 30 mM stock. The compound stock was first pre-diluted in DMSO to 3, 0.34, 0.042 and 0.0083 mM intermediate concentrations and subsequently spotted using Echo550 liquid handler into an empty 384-well assay plate to achieve desired final concentration (e.g. 100, 33, 11, 3.7, 1.2, 0.41, 0.14, 0.046, 0.015, 0.0051, 0.0017 μM). DMSO was backfilled in the plate to achieve a final DMSO assay concentration of 0.37%. The plate was then sealed and stored at room temperature until required.
THP-1 cells were treated with PMA (Phorbol 12-myristate 13-acetate) (20 ng/ml) for 16-18 hours. On the day of the experiment the media was removed and adherent cells were detached with trypsin for 5 minutes. Cells were then harvested, washed with complete RPMI 1640, spun down, and resuspended in RPMI 1640 (containing 2% heat inactivated FBS, penicillin (100 units/ml) and streptomycin (100 μg/ml). The cells were plated in the 384-well assay plate containing the spotted compounds at a density of 50,000 cells/well (final assay volume 50 μl). Cells were incubated with compounds for 1 hour and then stimulated with gramicidin (5 μM) (Enzo) for 2 hours. Plates were then centrifuged at 340 g for 5 min. Cell free supernatant (40 μL) was collected using a 96-channel PlateMaster (Gilson) and the production of IL-1β was evaluated by HTRF (cisbio). The plates were incubated for 18 h at 4° C. and read using the preset HTRF program (donor emission at 620 nm, acceptor emission at 668 nm) of the SpectraMax i3x spectrophotometer (Molecular Devices, software SoftMax 6). A vehicle only control and a dose titration of CRID3 (100-0.0017 μM) were run concurrently with each experiment. […]

| IC50 [nM] | Structure (SMILES) |
| --- | --- |
| 200 to 1000 | CC(C)(O)c1ncc([S@@](N)(=O)=NC(=O)Nc2c3c(cc4c2CCC4)CCC3)s1 [Compound IB, (S)-N′-((1,2,3,5,6,7-hexahydro-s-indacen-4-yl)carbamoyl)-2-(2-hydroxypropan-2-yl) thiazole-5-sulfonimidamide] |
| 40 to 200 | CC(C)(O)c1ncc(S(N)(=O)=NC(=O)Nc2c3c(cc4c2CCC4)CCC3)s1 (centres unmarked) [Compound I, N′-(1,2,3,5,6,7-hexahydro-s-indacen-4-ylcarbamoyl)-2-(2-hydroxypropan-2-yl) thiazole-5-sulfonimidamide] |
